{"source": "patent US20100034779A1", "about": "“COMPOSITIONS AND METHODS FOR PRODUCING PLURIPOTENT CELLS FROM ADULT TESTIS” (priority 2005, published 2010)", "key": {"human SSCs": {"system": "human SSCs", "test": "formation of ESC-like colonies in culture of human SSCs", "type": "cell-based", "conditions": "BIO 1 μM; human cultures", "procedure": "To optimize the culture condition, DMEM/F12 (1:1; Invitrogen) was applied instead of DMEM as basic medium and several growth factors for long-term culture were added: GDNF (4-50 ng/ml), bFGF (1-10 ng/ml), LIF (10^3 Units/ml), BIO (Calbiochem) and 1×B27 (Invitrogen). Collagenase IV (1 mg/ml in PBS) was used instead of trypsin/EDTA for passaging the cells. […] Tightly packed ESC-like colonies derived from human SSCs after 7 passages (about 1 month; FIG. 3d, e) when cells are cultured in DMEM/F12 medium containing 15% FCS, 2 mM glutamine, 1×NEAA, 50 μM β-ME, 10 ng/ml GDNF, 2 ng/ml bFGF, 10^3 Units/ml LIF and 1×B27."}, "non-human primate SSCs": {"system": "non-human primate SSCs", "test": "formation of ESC-like colonies in culture of non-human primate SSCs", "type": "cell-based", "conditions": "BIO 1 μM; non-human primate cultures"}, "[1]": {"system": "voltage-gated Na+ and L-type Ca2+ channels", "test": "patch-clamp spontaneous action potentials, channel blockade", "type": "cell-based, mouse", "conditions": "cadmium 0.5 mmol/L; maGSC-derived cardiomyocytes", "procedure": "To determine the functional expression of […] receptors in cardiomyocytes, the effects of β-adrenergic agonist isoproterenol (Iso; 1 μmol/L) on APs were studied. […] This is again in line with data from the ESC-derived cardiomyocytes. […] A further hint for the involvement of fast depolarising Na^+ channels are AP upstroke velocities in the magnitude of 30-50 Vs^−1 for ventricle-, purkinje and atrial-like APs (Table 3).\nThe membrane potential (Em) of cardiomyocytes was measured at room temperature with ruptured-patch whole cell current clamp (Maier, L. S., et al., Circ Res 2003, 92, 904-11). Fire-polished glass microelectrodes of >10 MΩ resistance when filled with pipette solution were used. Pipette solution contained (in mM) 120 potassium aspartate, 8 KCl, 7 NaCl, 1 MgCl2, 10 HEPES, 5 Mg-ATP, 0.3 Li-GTP (pH 7.2 with KOH). A normal Tyrode's solution with 2 mM CaCl2 served as bath solution. Access resistance was typically ˜20 MΩ after patch rupture. Liquid junction potentials were corrected before recording started. Spontaneous action potentials (APs) were recorded 1 min after patch rupture and followed for about 2 min. Signals were acquired at 1 kHz, filtered with 2.9 and 10 kHz Bessel filters, and recorded with an EPC10 amplifier (HEKA Elektronik, Lambrecht/Pfalz, Germany). […]"}, "gap junctions": {"system": "gap junctions", "test": "fluorescence recovery after photobleaching (FRAP) of calcein AM in cardiac clusters", "type": "cell-based, mouse", "conditions": "carbenoxolone 50 μmol/L", "procedure": "Functional coupling between cells is confirmed by fluorescence recovery after photobleaching (FRAP) analysis. Briefly, cardiac clusters were loaded with the membrane-permeant fluorescent dye calcein AM (5 μmol/L; Invitrogen) in Ca^2+-free Tyrode solution for 20 min at 37° C. After washing away the excess extracellular fluorescent dye to prevent further loading, the cultures were bathed in Ca^2+-free Tyrode solution and placed on the stage of a Zeiss LSM 5 PASCAL laser-scanning confocal microscope. Using Zeiss software, a rectangular region encompassing 30-50% of a single cell within a cell cluster was selected and its fluorescence was bleached by a high-intensity laser pulse (488 nm, 3-5 s duration). This caused immediate loss of calcein fluorescence emission recorded through a 505 nm long-pass emission filter. Calcein redistribution from adjacent unbleached cells through connexin pores into the bleached region of interest (ROI) was recorded in subsequent confocal images acquired at 30 s intervals for up to 10 min using a low-intensity laser pulse. Fluorescence recovery within ROI was plotted as a function of time and fit to a single exponential function: IROI (t)=A [1−exp (−kt)], where IROI (t) is the ROI fluorescence intensity at time t, A is the amplitude of fluorescence recovery, and k is the rate of recovery. The latter is considered a measure of gap junction permeability. […]"}, "L-type calcium channels": {"target": "T1, L-type calcium channels (Mus musculus, UniProt Q01815)", "T1 construct": "functional L-type calcium channels exist in the maGSC-derived beating cardiomyocytes; endogenous in cells; host or cells: beating cardiac clusters (day 5+15) differentiated from mouse maGSCs", "T1 sequence (Q01815 whole entry)": "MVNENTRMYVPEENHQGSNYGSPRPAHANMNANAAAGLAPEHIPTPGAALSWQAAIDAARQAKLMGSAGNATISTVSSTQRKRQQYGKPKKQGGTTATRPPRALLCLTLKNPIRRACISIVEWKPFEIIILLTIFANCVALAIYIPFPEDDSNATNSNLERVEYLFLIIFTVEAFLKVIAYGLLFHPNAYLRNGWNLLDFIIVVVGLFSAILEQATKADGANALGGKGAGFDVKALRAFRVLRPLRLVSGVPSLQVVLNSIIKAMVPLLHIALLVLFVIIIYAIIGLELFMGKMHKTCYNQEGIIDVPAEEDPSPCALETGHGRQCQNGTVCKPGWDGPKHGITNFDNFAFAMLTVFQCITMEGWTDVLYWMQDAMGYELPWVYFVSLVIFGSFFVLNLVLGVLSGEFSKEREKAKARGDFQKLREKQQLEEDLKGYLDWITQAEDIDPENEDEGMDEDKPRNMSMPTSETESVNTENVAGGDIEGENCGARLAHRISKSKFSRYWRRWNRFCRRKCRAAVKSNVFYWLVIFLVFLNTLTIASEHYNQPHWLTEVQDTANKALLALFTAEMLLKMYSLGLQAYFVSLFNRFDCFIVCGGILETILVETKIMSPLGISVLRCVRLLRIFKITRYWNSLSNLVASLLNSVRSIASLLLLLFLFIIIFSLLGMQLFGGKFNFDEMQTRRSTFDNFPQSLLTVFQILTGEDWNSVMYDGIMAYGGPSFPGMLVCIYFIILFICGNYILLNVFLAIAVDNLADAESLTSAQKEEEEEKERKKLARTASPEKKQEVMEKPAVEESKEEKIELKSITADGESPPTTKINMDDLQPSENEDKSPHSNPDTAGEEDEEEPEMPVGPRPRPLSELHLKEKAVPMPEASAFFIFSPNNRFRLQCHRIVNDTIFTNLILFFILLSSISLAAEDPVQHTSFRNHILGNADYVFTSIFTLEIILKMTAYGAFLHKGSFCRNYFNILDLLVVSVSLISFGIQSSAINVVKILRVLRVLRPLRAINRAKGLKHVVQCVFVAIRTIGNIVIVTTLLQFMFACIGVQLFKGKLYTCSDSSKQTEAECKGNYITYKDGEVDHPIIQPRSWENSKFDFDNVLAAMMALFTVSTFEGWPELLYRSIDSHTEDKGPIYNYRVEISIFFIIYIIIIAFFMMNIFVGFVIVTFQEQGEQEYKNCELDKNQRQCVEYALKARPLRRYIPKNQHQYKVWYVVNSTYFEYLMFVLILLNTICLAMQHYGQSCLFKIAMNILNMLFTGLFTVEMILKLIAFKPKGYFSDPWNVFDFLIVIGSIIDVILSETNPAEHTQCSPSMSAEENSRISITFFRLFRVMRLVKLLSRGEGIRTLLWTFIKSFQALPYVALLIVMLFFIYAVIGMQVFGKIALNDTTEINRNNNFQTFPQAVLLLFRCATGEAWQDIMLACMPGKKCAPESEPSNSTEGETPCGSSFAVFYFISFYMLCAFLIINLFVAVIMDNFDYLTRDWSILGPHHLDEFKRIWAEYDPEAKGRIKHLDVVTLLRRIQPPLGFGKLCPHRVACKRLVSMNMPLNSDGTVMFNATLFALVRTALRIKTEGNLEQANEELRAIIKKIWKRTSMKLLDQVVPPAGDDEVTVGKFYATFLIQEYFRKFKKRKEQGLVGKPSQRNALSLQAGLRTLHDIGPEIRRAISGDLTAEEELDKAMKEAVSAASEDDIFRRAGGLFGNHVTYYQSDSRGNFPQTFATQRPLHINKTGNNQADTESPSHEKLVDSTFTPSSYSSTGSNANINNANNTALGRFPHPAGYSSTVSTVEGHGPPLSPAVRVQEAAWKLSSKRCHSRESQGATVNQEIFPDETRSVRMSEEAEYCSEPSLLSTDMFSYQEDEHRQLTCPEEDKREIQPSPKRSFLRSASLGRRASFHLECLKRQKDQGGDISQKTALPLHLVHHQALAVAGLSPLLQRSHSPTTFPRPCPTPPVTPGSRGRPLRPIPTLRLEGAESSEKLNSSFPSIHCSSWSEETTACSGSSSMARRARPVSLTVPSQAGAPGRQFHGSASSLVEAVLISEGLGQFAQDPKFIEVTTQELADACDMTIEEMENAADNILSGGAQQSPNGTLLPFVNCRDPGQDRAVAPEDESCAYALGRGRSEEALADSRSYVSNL", "T1 sequence (Q8CC27 whole entry partner)": "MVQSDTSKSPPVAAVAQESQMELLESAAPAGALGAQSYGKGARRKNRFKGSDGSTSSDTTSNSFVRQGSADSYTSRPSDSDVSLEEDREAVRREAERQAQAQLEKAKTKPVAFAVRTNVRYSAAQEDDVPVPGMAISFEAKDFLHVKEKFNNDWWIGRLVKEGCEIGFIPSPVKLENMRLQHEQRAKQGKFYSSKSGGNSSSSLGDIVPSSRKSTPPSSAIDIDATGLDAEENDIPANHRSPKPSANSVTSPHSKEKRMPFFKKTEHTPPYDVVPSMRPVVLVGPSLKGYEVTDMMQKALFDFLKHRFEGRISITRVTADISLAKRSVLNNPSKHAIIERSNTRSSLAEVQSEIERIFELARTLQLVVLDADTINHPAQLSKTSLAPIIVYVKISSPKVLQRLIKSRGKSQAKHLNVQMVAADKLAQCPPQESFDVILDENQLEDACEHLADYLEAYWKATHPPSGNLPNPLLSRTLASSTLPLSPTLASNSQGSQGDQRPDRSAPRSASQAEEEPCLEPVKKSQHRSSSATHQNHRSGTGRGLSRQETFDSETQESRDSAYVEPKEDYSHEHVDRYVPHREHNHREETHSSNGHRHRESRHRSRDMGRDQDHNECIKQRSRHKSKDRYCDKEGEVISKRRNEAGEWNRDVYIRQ", "T1 sequence (O08532 25-956 partner limits assumed)": "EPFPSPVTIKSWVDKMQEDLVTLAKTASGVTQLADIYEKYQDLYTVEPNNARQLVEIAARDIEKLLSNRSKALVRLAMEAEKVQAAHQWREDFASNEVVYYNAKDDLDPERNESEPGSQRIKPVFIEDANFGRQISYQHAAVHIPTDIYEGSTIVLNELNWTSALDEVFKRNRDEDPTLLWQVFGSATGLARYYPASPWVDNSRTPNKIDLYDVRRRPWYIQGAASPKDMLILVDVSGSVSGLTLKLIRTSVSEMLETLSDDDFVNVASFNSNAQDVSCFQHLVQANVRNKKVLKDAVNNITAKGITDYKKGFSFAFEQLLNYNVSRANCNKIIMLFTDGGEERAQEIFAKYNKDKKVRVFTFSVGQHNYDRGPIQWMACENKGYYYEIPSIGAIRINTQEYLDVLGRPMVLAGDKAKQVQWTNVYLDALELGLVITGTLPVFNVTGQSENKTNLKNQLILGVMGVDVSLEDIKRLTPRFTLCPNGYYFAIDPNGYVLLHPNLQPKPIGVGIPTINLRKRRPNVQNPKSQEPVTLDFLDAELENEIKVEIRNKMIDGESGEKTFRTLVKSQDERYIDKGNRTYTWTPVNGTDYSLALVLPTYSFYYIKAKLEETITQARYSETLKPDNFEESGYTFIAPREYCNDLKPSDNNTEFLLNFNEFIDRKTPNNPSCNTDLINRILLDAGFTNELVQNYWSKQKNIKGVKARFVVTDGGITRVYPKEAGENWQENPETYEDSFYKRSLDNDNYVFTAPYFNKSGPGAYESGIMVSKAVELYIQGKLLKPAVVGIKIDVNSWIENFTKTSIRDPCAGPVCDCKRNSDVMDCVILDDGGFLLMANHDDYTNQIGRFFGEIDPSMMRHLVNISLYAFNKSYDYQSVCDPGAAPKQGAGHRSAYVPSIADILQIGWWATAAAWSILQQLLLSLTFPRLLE", "T1 sequence (O08532 957-1103 partner limits assumed)": "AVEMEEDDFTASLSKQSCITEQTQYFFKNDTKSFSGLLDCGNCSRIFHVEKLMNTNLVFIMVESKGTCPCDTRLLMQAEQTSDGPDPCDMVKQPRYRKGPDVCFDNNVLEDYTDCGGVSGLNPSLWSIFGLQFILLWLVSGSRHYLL", "test": "chronotropic effects of cardioactive drugs on beating cardiac clusters", "type": "cell-based", "conditions": "beating cardiac clusters at day 5+15; for beating frequency / contraction: 10^−5 mol/L; for chronotropic effect on the beating frequency of maGSC-derived cardiomyocytes: dose dependence", "description": "In cardiac muscle, where Ca^2+ influx across the sarcolemma is essential for contraction, the dihydropyridine (DHP)-sensitive L-type calcium channel (DHP receptor) represents the major entry pathway of extracellular Ca^2+. […] The function of L-type calcium channels is examined in beating cardiac clusters at day 5+15 by evaluating chronotropic effects of cardioactive drugs."}}, "note": "“Also recorded” adds a separate entry of the source."}
{"compound": "O=C1Nc2cc(Br)ccc2/C1=C1/Nc2ccccc2/C1=N\\O", "note": "[BIO, (2′Z, 3′E)-6-Bromoindirubin-3′-oxime]", "values": [{"measurement": "formation of ESC-like colonies", "setting": "human SSCs", "value": "optimized the formation of ESC-like colonies"}, {"measurement": "formation of ESC-like colonies", "setting": "non-human primate SSCs", "value": "optimized the formation of ESC-like colonies"}]}
{"compound": "[Cd]", "note": "[cadmium]", "values": [{"measurement": "spontaneous APs", "setting": "[1]", "value": "completely abolished"}]}
{"compound": "CC1(C)[C@@H](OC(=O)CCC(=O)O)CC[C@]2(C)[C@H]3C(=O)C=C4[C@@H]5C[C@@](C)(C(=O)O)CC[C@]5(C)CC[C@@]4(C)[C@]3(C)CC[C@@H]12", "note": "[carbenoxolone, 3β-hydroxy-11-oxoolean-12-en-30-oic acid 3-hemisuccinate]", "values": [{"measurement": "fluorescence recovery after photobleaching", "setting": "gap junctions", "value": "disrupted; also recorded: almost completely abolished"}]}
{"compound": "COc1ccc([C@@H]2Sc3ccccc3N(CCN(C)C)C(=O)[C@@H]2OC(C)=O)cc1", "note": "[diltiazem]", "values": [{"measurement": "beating frequency / contraction", "setting": "L-type calcium channels", "value": "almost completely blockes the contraction"}, {"measurement": "chronotropic effect on the beating frequency of maGSC-derived cardiomyocytes", "setting": "L-type calcium channels", "value": "dose-dependent negative chronotropic effects"}]}
{"compound": "(S)-BayK 8644", "values": [{"measurement": "beating frequency / contraction", "setting": "L-type calcium channels", "value": "doubles the beating frequency"}, {"measurement": "chronotropic effect on the beating frequency of maGSC-derived cardiomyocytes", "setting": "L-type calcium channels", "value": "dose-dependent positive chronotropic effects"}]}
